# Earlier results, collected in patent US9114602B2, “Process for making lithographic printing plate” (FUJIFILM Corporation, priority 2011, dated 2015).
# Conditions: at 20° C.
row,solubility in water,Structure (SMILES)
1,2.7 g/100 mL,CC(C)CCO [3-methyl-1-butanol]
2,5.6 g/100 mL,CC(C)C(C)O (centres unmarked) [3-methyl-2-butanol]
3,2.0 g/100 mL,CC(C)CC(C)O (centres unmarked) [4-methyl-2-pentanol]
4,1.0 g/100 mL,"CCCCCCOCCO [Ethylene glycol mono-n-hexyl ether, reference compound]"
5,2.7 g/100 mL,"CCCCCO [Example 1-pentanol, 1-pentanol]"
6,4.5 g/100 mL,"CCCC(C)O (centres unmarked) [Example 2-pentanol, 2-pentanol]"
7,4.0 g/100 mL,"CCCC(C)=O [Example 2-pentanone, 2-pentanone]"
8,5.2 g/100 mL,"CCC(O)CC [Example 3-pentanol, 3-pentanol]"
9,4.0 g/100 mL,OCc1ccccc1 [benzyl alcohol]
10,1.7 g/100 mL,CCC(=O)CC [diethyl ketone]
11,6.5 g/100 mL,CCCCOCCOCCOC(C)=O [diethylene glycol monobutyl ether acetate]
12,2.7 g/100 mL,OCCOc1ccccc1 [ethylene glycol monophenyl ether]
13,3.5 g/100 mL,CC(C)(C)CO [neopentyl alcohol]
14,1.6 g/100 mL,CCCOC(C)=O [propyl acetate]
15,4.4 g/100 mL,CCCCOCC(C)O (centres unmarked) [propylene glycol mono-n-butyl ether]

row,Structure (SMILES),solubility in water
1,CCC(C)CO (centres unmarked) [2-methyl-1-butanol],3.0 g/100 mL
2,CC(=O)OC(C)C [isopropyl acetate],4.3 g/100 mL
